The record followed here is patent publication US8551999B2, “Heterocyclic compound and pharmaceutical composition thereof” (Otsuka Pharmaceutical Co., Ltd., priority 2007, dated 2013).

What is called melting point is the temperature, or range, at which the solid turns liquid.

Molecule `Br.CN(C(=O)c1ccc(C(F)(F)F)cc1)c1ccc(Oc2ccc3c(c2)cc(C(=O)N2CCN(Cc4ccccc4)CC2)n3C)nc1` [Example 329, N-{6-[2-(4-Benzylpiperazine-1-carbonyl)-1-methyl-1H-indol-5-yl-oxy]pyridin-3-yl}-N-methyl-4-trifluoromethylbenzamide hydrobromide] returned a melting point of 189 to 201 °C. In turn, `Br.CN(C(=O)c1ccc(Cl)c(Cl)c1)c1ccc(Oc2ccc3c(c2)cc(C(=O)N2CCN(Cc4ccccc4)CC2)n3C)nc1` [Example 330, N-{6-[2-(4-Benzylpiperazine-1-carbonyl)-1-methyl-1H-indol-5-yl-oxy]pyridin-3-yl}-3,4-dichloro-N-methylbenzamide hydrobromide] gave a melting point of 210 to 213 °C. `Cn1c(C(=O)N2CCN(C3CCOCC3)CC2)cc2cc(Oc3ccc(NS(=O)(=O)c4ccc(Cl)c(Cl)c4)cn3)ccc21` [Example 331, 3,4-Dichloro-N-(6-{1-methyl-2-[4-(tetrahydropyran-4-yl)-piperazine-1-carbonyl]-1H-indol-5-yloxy}pyridin-3-yl)-benzenesulfonamide] had a melting point of 208 to 210 °C. Consider `Cn1c(C(=O)N2CCN(C3CCOCC3)CC2)cc2cc(Oc3ccc(NS(=O)(=O)c4ccc(C(F)(F)F)cc4)cn3)ccc21` [Example 332, N-(6-{1-Methyl-2-[4-(tetrahydropyran-4-yl)piperazine-1-carbonyl]-1H-indol-5-yloxy}pyridin-3-yl)-4-trifluoromethylbenzene-sulfonamide], for which the melting point fell in the range of 174 to 178 °C. In turn, `Br.Cn1c(C(=O)N2CCN(Cc3ccc4c(c3)OCO4)CC2)cc2cc(Oc3ccc(NCc4ccc(Cl)c(Cl)c4)cn3)ccc21` [Example 333, (4-Benzo[1,3]dioxol-5-ylmethylpiperazin-1-yl)(5-{5-[(3,4-di-chlorophenyl)methylamino]pyridin-2-yloxy}-1-methyl-1H-indol-2-yl)methanone hydrobromide] registered a melting point of 205 to 214 °C.

For the molecule `Br.Cn1c(C(=O)N2CCN(Cc3ccccc3)CC2)cc2cc(Oc3ccc(NCc4ccc(Cl)c(Cl)c4)cn3)ccc21` [Example 334, (4-Benzylpiperazin-1-yl)(5-{5-[(3,4-dichlorophenyl)methylamino]-pyridin-2-yloxy}-1-methyl-1H-indol-2-yl)methanone hydrobromide], the melting point is 209 to 217 °C. In turn, `Br.CN(c1ccc(C(F)(F)F)cc1)c1ccc(Oc2ccc3c(c2)cc(C(=O)N2CCN(Cc4ccc5c(c4)OCO5)CC2)n3C)nc1` [Example 335, (4-Benzo[1,3]dioxol-5-ylmethylpiperazin-1-yl)(1-methyl-5-{5-[methyl(4-trifluoromethylphenyl)amino]pyridin-2-yloxy}-1H-indol-2-yl)methanone hydrobromide] showed a melting point of 211 to 215 °C. Next, `Br.CN(c1ccc(C(F)(F)F)cc1)c1ccc(Oc2ccc3c(c2)cc(C(=O)N2CCN(Cc4ccccc4)CC2)n3C)nc1` [Example 336, (4-Benzylpiperazin-1-yl)(1-methyl-5-{5-[methyl(4-trifluoromethyl-phenyl)amino]pyridin-2-yloxyl}-1H-indol-2-yl)methanone hydrobromide]: 212 to 218 °C; `Br.CN(c1ccc(C(F)(F)F)cc1)c1ccc(Oc2ccc3c(c2)cc(C(=O)N2CCN(Cc4ccncc4)CC2)n3C)nc1` [Example 337, (1-Methyl-5-{5-[methyl(4-trifluoromethylphenyl)amino]pyridin-2-yloxy}-1H-indol-2-yl)(4-pyridin-4-ylmethylpiperazin-1-yl)-methanone hydrobromide]: 167 to 174 °C; `Br.CN(C(=O)c1ccc(C(F)(F)F)cc1)c1ccc(Oc2ccc3c(c2)cc(C(=O)N2CCN(Cc4ccc(C#N)cc4)CC2)n3C)nc1` [Example 339, N-(6-{2-[4-(4-Cyanobenzyl)piperazine-1-carbonyl]-1-methyl-1H-indol-5-yloxy}pyridin-3-yl)-N-methyl-4-trifluoromethylbenzamide hydrobromide]: 251 to 255 °C (dec.). `Br.CCOc1ccc(CN2CCN(C(=O)c3cc4cc(Oc5ccc(NC(=O)c6ccc(C(F)(F)F)cc6)cn5)ccc4n3C)CC2)cc1OCC` [Example 340, N-(6-{2-[4-(3,4-Diethoxybenzyl)piperazine-1-carbonyl]-1-methyl-1H-indol-5-yloxy}pyridin-3-yl)-4-trifluoromethylbenzamide hydrobromide] had a melting point of 196 to 198 °C. Next, `Br.CN(C(=O)c1ccc(C(F)(F)F)cc1)c1ccc(Oc2ccc3c(c2)cc(C(=O)N2CCN(Cc4ccc(OC(F)(F)F)cc4)CC2)n3C)nc1` [Example 343, N-Methyl-N-(6-{1-methyl-2-[4-(4-trifluoromethoxybenzyl)-piperazine-1-carbonyl]-1H-indol-5-yloxy}pyridin-3-yl)-4-tri-fluoromethylbenzamide hydrobromide]: 213 to 216 °C. Next, `Br.CCn1c(C(=O)N2CCN(Cc3ccc4c(c3)OCO4)CC2)cc2cc(Oc3ccc(N(C)C(=O)c4ccc(C(F)(F)F)cc4)cn3)ccc21` [Example 344, N-{6-[2-(4-Benzo[1,3]dioxol-5-ylmethylpiperazine-1-carbonyl)-1-ethyl-1H-indol-5-yloxy]pyridin-3-yl}-N-methyl-4-trifluoromethyl-benzamide hydrobromide]: 179 to 183 °C. With `Br.COc1ccc(CN2CCN(C(=O)c3cc4cc(Oc5ccc(N(C)C(=O)c6ccc(C(F)(F)F)cc6)cn5)ccc4n3C)CC2)cc1OC` [Example 345, N-(6-{2-[4-(3,4-Dimethoxybenzyl)piperazine-1-carbonyl]-1-methyl-1H-indol-5-yloxy}pyridin-3-yl)-N-methyl-4-trifluoromethyl-benzamide hydrobromide], the melting point is 175 to 177 °C. In turn, `COc1ccc(CN2CCN(C(=O)c3cc4cc(Oc5ccc(N(C)C(=O)c6ccc(Cl)c(Cl)c6)cn5)ccc4n3C)CC2)cc1.O=C(O)/C=C\C(=O)O` [Example 347, 3,4-Dichloro-N-(6-{2-[4-(4-methoxybenzyl)piperazine-1-carbonyl]-1-methyl-1H-indol-5-yloxy}pyridin-3-yl)-N-methylbenzamide maleate] displayed a melting point of 171 to 172 °C.

Regarding `COc1ccc(CN2CCN(C(=O)c3cc4cc(Oc5ccc(NC(=O)c6ccc(C(F)(F)F)cc6)cn5)ccc4n3C)CC2)cn1.O=C(O)/C=C\C(=O)O` [Example 348, N-(6-{2-[4-(6-Methoxypyridin-3-ylmethyl)piperazine-1-carbonyl]-1-methyl-1H-indol-5-yloxy}pyridin-3-yl)-4-trifluoromethylbenzamide maleate], the melting point fell in the range of 135 to 138 °C. On to `Br.COc1ccc(CN2CCN(C(=O)c3cc4cc(Oc5ccc(NC(=O)c6ccc(Cl)c(Cl)c6)cn5)ccc4n3C)CC2)cc1` [Example 349, 3,4-Dichloro-N-(6-{2-[4-(4-methoxybenzyl)piperazine-1-carbonyl]-1-methyl-1H-indol-5-yloxy}pyridin-3-yl)benzamide hydrobromide], for which the melting point is 244 to 247 °C (dec.). `Br.COc1ccc(CN2CCN(C(=O)c3cc4cc(Oc5ccc(NC(=O)c6ccc(C(F)(F)F)cc6)cn5)ccc4n3C)CC2)cc1OC` [Example 350, N-(6-{2-[4-(3,4-Dimethoxybenzyl)piperazine-1-carbonyl]-1-methyl-1H-indol-5-yloxy}pyridin-3-yl)-4-trifluoromethylbenzamide hydrobromide] gave a melting point of 233 to 235 °C. The molecule `Br.COc1cccc(CN2CCN(C(=O)c3cc4cc(Oc5ccc(N(C)C(=O)c6ccc(C(F)(F)F)cc6)cn5)ccc4n3C)CC2)c1` [Example 351, N-(6-{2-[4-(3-Methoxybenzyl)piperazine-1-carbonyl]-1-methyl-1H-indol-5-yloxy}pyridin-3-yl)-N-methyl-4-trifluoromethylbenzamide hydrobromide] registered a melting point of 217 to 219 °C. Take `Br.COc1cccc(CN2CCN(C(=O)c3cc4cc(Oc5ccc(NC(=O)c6ccc(C(F)(F)F)cc6)cn5)ccc4n3C)CC2)c1` [Example 353, N-(6-{2-[4-(3-Methoxybenzyl)piperazine-1-carbonyl]-1-methyl-1H-indol-5-yloxy}pyridin-3-yl)-4-trifluoromethylbenzamide hydrobromide]: the melting point lay in the range of 231 to 233 °C. `COc1ccccc1CN1CCN(C(=O)c2cc3cc(Oc4ccc(NC(=O)c5ccc(C(F)(F)F)cc5)cn4)ccc3n2C)CC1.O=C(O)C(=O)O` [Example 354, N-(6-{2-[4-(2-Methoxybenzyl)piperazine-1-carbonyl]-1-methyl-1H-indol-5-yloxy}pyridin-3-yl)-4-trifluoromethylbenzamide oxalate] gave a melting point of 142 to 144 °C. Turning to `COc1ccccc1CN1CCN(C(=O)c2cc3cc(Oc4ccc(N(C)C(=O)c5ccc(C(F)(F)F)cc5)cn4)ccc3n2C)CC1.O=C(O)C(=O)O` [Example 355, N-(6-{2-[4-(2-Methoxybenzyl)piperazine-1-carbonyl]-1-methyl-1H-indol-5-yloxy}pyridin-3-yl)-N-methyl-4-trifluoromethylbenzamide oxalate], the melting point fell in the range of 140 to 142 °C. With `COc1ccccc1/C=C/CN1CCN(C(=O)c2cc3cc(Oc4ccc(NC(=O)c5ccc(C(F)(F)F)cc5)cn4)ccc3n2C)CC1.CS(=O)(=O)O` [Example 358, N-[6-(2-{4-[(E)-3-(2-Methoxyphenyl)allyl]piperazine-1-carbonyl}-1-methyl-1H-indol-5-yloxy)pyridin-3-yl]-4-trifluoromethyl-benzamide methanesulfonate], the melting point is 268 to 271 °C (dec.).

As for `Br.CCOc1ccc(CN2CCN(C(=O)c3cc4cc(Oc5ccc(NC(=O)c6ccc(Cl)c(Cl)c6)cn5)ccc4n3C)CC2)cc1` [Example 360, 3,4-Dichloro-N-(6-{2-[4-(4-ethoxybenzyl)piperazine-1-carbonyl]-1-methyl-1H-indol-5-yloxy}pyridin-3-yl)benzamide hydrobromide], the melting point was 235 to 238 °C (dec.). Consider `CCOc1ccc(CN2CCN(C(=O)c3cc4cc(Oc5ccc(N(C)C(=O)c6ccc(Cl)c(Cl)c6)cn5)ccc4n3C)CC2)cc1.CS(=O)(=O)O` [Example 361, 3,4-Dichloro-N-(6-{2-[4-(4-ethoxybenzyl)piperazine-1-carbonyl]-1-methyl-1H-indol-5-yloxy}pyridin-3-yl)-N-methylbenzamide methanesulfonate], for which the melting point lay within 168 to 170 °C.
